Like-named read-outs stand apart in the source and are kept apart here.
Key:
[1] = 40° C., Solution B
Excerpt: (§1) The values of the exponents in the equation derived from the exponential fit are the first order rate constant k1 (in units of days^−1).

[2] = Procedure: The real time stability studies at 5° C. have progressed for about one year thus far.
as §1

SMILES: N[C@@H](CCC(=O)N[C@@H](CS)C(=O)NCC(=O)O)C(=O)O [L-glutathione]
- time until product specification for L-glutathione approached its limit of expiration [1]: approximately 73 days
- time until product specification for L-glutathione approached its limit of expiration ([2]; 5° C., from first order fit of 12-15 month real time data): about 100 months
- energy of activation for decomposition ([2]; corresponds to Q10 value of 2.94): 19.0 kcal/mol
